Experimental data from patent US20110160121A1, “UNACYLATED GHRELIN AND ANALOGS AS THERAPEUTIC AGENTS FOR VASCULAR REMODELING IN DIABETIC PATIENTS AND TREATMENT OF CARDIOVASCULAR DISEASE” (ALIZE PHARMA SAS, priority 2008, published 2011).
Where no end group is shown, it is not given here.

Columns and labels:
p53, p21, pRb = assay: Western blot of p53, p21 and phospho-Rb in cultured CAC; format: cell-based, human; details: induced by AGE in cultured CAC; FIG. 2B
From the text: To this end, the effect of AGE treatment, alone or in combination with UAG, was first evaluated on SA-β-gal activity. […] In addition, AGE-induced p53 accumulation and senescent like-growth arrest were prevented by silencing p53 (FIG. 2C).
Western Blot Analysis—CAC from healthy donors cultured in the presence of UAG, in combination or not with AGE, and CAC recovered from diabetic patients treated with saline or UAG were lysed. Protein concentration was detected as previously described (Ref. 24). 50 μg of proteins were separated on SDS-polyacrylamide gels and transferred to nitrocellulose membranes. Reaction with anti-p53, anti p21 and anti-phospho-Rb antibodies and detection with an enhanced chemiluminescence detection system (Amersham Biosciences) were performed as described previously (Ref. 20).

CAC = assay: Arterial morphogenesis by Q-RT-PCR (Ephrin B2, Notch1, Notch4, EphB4) of CAC from treated patients; format: in vivo, human; details: cells obtained from treated patients, cultured with IL-3; FIG. 3D
Method: To confirm their vascular features, the cells recovered from patients and controls were cultured with IL-3; which is able to induce expansion and arterial morphogenesis of CD45^+ cells derived from both peripheral blood and BM (Ref. 28).
RNA isolation and quantitative real-time PCR—CAC from diabetic patients, healthy subjects and mice treated with UAG or saline were cultured in EGM-2 medium. Human arterial and venous cells were used as a positive controls. mRNA quantification was performed by Q-RT-PCR, as previously described (Ref. 24). The relative expression of Ephrin B2, Notch1, Notch4 and EphB4 were calculated by using comparative threshold cycle methods. The human and murine primer sequences used were described (Refs. 25, 26).

CAC membranes [1] = assay: Competition binding with [125I-Tyr4]-UAG on CAC membranes; set-up: species or system human; details: 100 nM competitor, 0.25 nM radioligand; FIG. 5A
From the text: The specific binding of [^125I-Tyr^4]-UAG (calculated as difference between binding in the absence, control, and in the presence of UAG) represented about 75% of the control value (P<0.001) and was detected either on fresh (0.25 and 0.26 fmol) or frozen-thawed (0.20 and 0.33 fmol) CAC membranes from two different cell preparations.

CAC membranes [2] = assay: Saturation binding experiment on CAC membranes (Scatchard analysis); set-up: species or system human
GHSR-1a = GHSR-1a (Homo sapiens, UniProt Q92847); details: Ref. 7; cited from earlier work
cardiomyocytes = details: Ref. 8; cited from earlier work
[3] = Scatchard analysis, CAC membranes

GHSR-1a, sequence (Q92847 whole entry): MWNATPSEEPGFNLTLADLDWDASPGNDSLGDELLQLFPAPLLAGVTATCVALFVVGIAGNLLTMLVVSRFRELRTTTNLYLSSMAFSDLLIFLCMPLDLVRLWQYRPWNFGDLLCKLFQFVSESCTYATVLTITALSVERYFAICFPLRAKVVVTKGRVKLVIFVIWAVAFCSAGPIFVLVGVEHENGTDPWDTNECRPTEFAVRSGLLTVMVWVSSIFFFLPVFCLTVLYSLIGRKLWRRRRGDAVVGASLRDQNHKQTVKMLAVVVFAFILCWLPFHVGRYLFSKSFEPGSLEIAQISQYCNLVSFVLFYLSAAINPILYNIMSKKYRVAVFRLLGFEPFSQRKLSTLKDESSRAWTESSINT

inhibition of binding of [125I-Tyr4]-UAG to CAC membranes (CAC membranes [1]): inhibited | radioligand concentration at maximum specific binding (saturable) (CAC membranes [2]; CAC membranes, FIG. 5B): 2 nM | Bmax (CAC membranes [2]; [3]): 10.7 fmol/mg membrane protein | Hill coefficient (CAC membranes [2]; [3]): ~1 | Kd (CAC membranes [2]; Scatchard analysis, single class of binding sites on CAC): 0.48 nM
Substance: 1-NH2Gly-Ser-Ser-Phe-Leu-Ser-Pro-Glu-His-Gln-Arg-Val-Gln-Gln-Arg-Lys-Glu-Ser-Lys-Lys-Pro-Pro-Ala-Lys-Leu-Gln-Pro-Arg-28 (H-GSSFLSPEHQRVQQRKESKKPPAKLQPR; ends and bridges not checked; listed as Homo sapiens) [UAG]
p53 accumulation, p21 expression and phosphorylation of Rb (p53, p21, pRb): prevented p53 accumulation, p21 expression and phosphorylation of Rb induced by AGE | arterial specification (Ephrin B2, Notch1, Notch4; EphB4) (CAC): able to undergo arterial specification | binding to GHSR-1a (GHSR-1a): fails to bind GHSR-1a | inhibition of experimentally-induced cell death (cardiomyocytes): inhibit experimentally-induced cell death
